Reference: US20260285932A1, “PEPTIDE TYROSINE-TYROSINE ANALOG AND USE THEREOF” (THE UNITED BIO-TECHNOLOGY (HENGQIN) CO., LTD., priority 2023, published 2026)

Experiments:
[1] = target: T1, human Y5 receptor (hNPY5R) (Homo sapiens, UniProt Q15761); experiment: calcium flux (FLIPR) assay, functional activity on human Y5 receptor; settings: read-out: hNPY5R EC50, average, at least 3 independent tests
T1 sequence (Q15761 1-445): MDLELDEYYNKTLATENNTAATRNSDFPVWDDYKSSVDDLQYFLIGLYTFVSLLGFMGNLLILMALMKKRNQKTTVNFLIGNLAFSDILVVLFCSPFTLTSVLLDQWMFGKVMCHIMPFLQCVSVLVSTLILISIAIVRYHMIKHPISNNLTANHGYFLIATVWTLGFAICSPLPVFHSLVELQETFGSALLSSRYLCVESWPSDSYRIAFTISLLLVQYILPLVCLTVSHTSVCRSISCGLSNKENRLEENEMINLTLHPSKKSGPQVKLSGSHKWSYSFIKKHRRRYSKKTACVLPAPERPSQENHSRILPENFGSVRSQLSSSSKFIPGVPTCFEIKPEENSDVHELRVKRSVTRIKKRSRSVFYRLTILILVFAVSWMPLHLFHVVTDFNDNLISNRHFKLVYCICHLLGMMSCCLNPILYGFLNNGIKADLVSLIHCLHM
Procedure: (§3) 1) Preheated the culture medium, 1×DPBS and 0.05% trypsin EDTA in a 37° C. water bath for more than 30 minutes in advance, and ready for use.
(§4) 3) Cultured cells were taken out from the incubator, added with 1×DPBS, incubated for a moment, suctioned to remove DPBS, added with an appropriate amount of 0.05% trypsin-EDTA for cell digestion, digestion terminated with 10% FBS medium, and dispersed the cells.
(§5) 4) The dispersed cells were transferred into a 50 mL centrifuge tube using a pipette, centrifuged at 1000 rpm for 5 minutes, resuspended in culture medium, dispersed, and counted.
(§6) 5) The cells were diluted with culture medium to 1×10^6 cells/mL, and inoculated at a volume of 20 μL/well of cells onto 384-well poly-Lysine-coated cell plates.
(§7) 6) The cells were incubated overnight at 37° C. in an incubator with 5% CO2. […]
(§8) 4) The calcium ion activation rate was calculated for each well: % Activity=(signal value of sample well-average signal value of low-signal control well)/(average signal value of high-signal control well-average signal value of low-signal control well). Using the logarithm of the concentration of analogues as the horizontal axis and the activation rate of calcium ion fluorescence signal as the vertical axis, the “Nonlinear regression (curve fit)-log (antigen) vs. response Variable slope” model in GraphPad Prism 5.0 was used for fitting to calculate the EC50 of the sample.

[2] = pharmacokinetics in SD rats; assay type: in vivo; settings: male rat, 0.492 mg/kg single s.c., plasma
Procedure: (§1) Blood samples were collected from each animal at each time point after administration, and the blood samples were centrifuged at around 4° C., 3200 g, for 10 minutes. Plasma was collected separately, transferred to pre-labeled 96-well plates or polypropylene tubes, speedily frozen on dry ice, and stored at −60° C. or lower until LC-MS/MS analysis.
(§2) LC-MS/MS method was adopted to determine the concentration of the measured analogues in blood samples. The data on the changes in plasma concentration over time were plotted into a chart and analyzed using non partitioned methods with Phoenix WinNonlin 6.3 software program. Relevant PK parameters were calculated based on the administration routes.
The plasma pharmacokinetics of PYY analogues in male SD rats were evaluated after a single subcutaneous administration of 0.492 mg/kg Analogue 3. Blood samples were collected from 3 rats at each time point after administration for 0.5 h, 1 h, 2 h, 4 h, 8 h, 12 h, 16 h, 24 h, 48 h, 72 h, 96 h, 120 h, 144 h, 168 h, extending to 168 h. Due to the use of discontinuous sampling to evaluate the kinetics of PYY analogues in rats, the pharmacokinetic parameters of Analogue 3 after a single subcutaneous administration of 0.492 mg/kg were listed using average concentration-time data.

[3] = target: T2, human NPY1 receptor (hNPY1R) (Homo sapiens, UniProt P25929); experiment: calcium flux (FLIPR) assay, functional activity on human NPY1 receptor; assay type: cell-based; settings: average, at least 3 independent tests
T2 construct: expressed in transfected cells
T2 sequence (P25929 1-384): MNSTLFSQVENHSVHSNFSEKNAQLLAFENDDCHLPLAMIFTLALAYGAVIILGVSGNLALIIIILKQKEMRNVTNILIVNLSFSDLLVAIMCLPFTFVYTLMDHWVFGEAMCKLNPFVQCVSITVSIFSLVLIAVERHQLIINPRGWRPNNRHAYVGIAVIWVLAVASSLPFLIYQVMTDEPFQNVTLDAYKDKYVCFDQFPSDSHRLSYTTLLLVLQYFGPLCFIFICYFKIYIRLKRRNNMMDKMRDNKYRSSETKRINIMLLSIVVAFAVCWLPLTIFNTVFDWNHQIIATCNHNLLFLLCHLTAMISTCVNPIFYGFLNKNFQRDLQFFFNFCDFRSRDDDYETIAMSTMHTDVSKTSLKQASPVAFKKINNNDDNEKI
Procedure: as §3, §4, §5, §6, §7, §8

[4] = pharmacokinetics in crab-eating macaques; assay type: in vivo; settings: male crab-eating macaque, 0.246 mg/kg single s.c., plasma
Procedure: as §1, §2
The plasma pharmacokinetics of PYY analogues in male crab-eating macaques were evaluated after a single subcutaneous administration of 0.246 mg/kg Analogue 3. Blood samples were collected from 2 crab-eating macaques at each time point after administration for 1 h, 2 h, 4 h, 8 h, 12 h, 24 h, 48 h, 72 h, 96 h, 120 h, 144 h, 168 h, 192 h, 240 h, 288 h, 336 h, 408 h, 504 h, extending to 504 hours. Due to the use of discontinuous sampling to evaluate the kinetics of PYY analogues in crab-eating macaques, the pharmacokinetic parameters of Analogue 3 after a single subcutaneous administration of 0.246 mg/kg were listed using average concentration-time data.

[5] = target: T3, recombinant human NPY2 receptor (Homo sapiens, UniProt P49146); experiment: cAMP assay, in vitro functional activity on NPY2 receptors; assay type: cell-based; settings: inhibition of Forskolin-induced cAMP in HEK 293 cells overexpressing hNPY2R; average, at least 3 independent tests
T3 construct: expressed in transfected cells; host or cells: HEK 293
T3 sequence (P49146 1-381): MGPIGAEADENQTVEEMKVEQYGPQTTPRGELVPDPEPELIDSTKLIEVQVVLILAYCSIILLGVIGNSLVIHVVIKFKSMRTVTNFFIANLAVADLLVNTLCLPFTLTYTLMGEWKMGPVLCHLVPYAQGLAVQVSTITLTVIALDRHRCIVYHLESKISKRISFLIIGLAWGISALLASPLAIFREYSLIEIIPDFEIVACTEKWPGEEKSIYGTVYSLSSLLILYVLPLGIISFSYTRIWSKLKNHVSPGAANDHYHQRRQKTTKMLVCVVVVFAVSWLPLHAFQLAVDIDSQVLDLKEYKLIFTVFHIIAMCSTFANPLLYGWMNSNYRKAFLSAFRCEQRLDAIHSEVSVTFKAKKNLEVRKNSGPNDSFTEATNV
Procedure: 2) Preparation of cells: the cultured cells were collected into a 15 mL sterile centrifuge tube, and centrifuged at 1000 rpm for 5 minutes, with the supernatant being discarded. 10 mL of 1×PBS was added, mixed gently, and centrifuged at 1000 rpm for 5 minutes, with the supernatant being discarded.
4) According to the arrangement order of Map analogues, 100 nL of prepared analogues were added to a 384-well cell reaction plate using Echo. After addition, they were centrifuged at 1000 rpm for 1 minute.
5) 5 μL of 2 μM Forskolin (prepared with detection buffer) was added to a 384-well cell reaction plate using Multidrop Combi and centrifuged at 1000 rpm for 1 minute. 5 μL of detection buffer containing cells was added to a 384-well reaction plate, ensuring a cell count of 3000 cells per well.
6) 10 μL cAMP detection reagent solution (1×cell lysis buffer 9.5 mL, 1×D2-cAMP solution, 1×cAMP-antibody) was added to the corresponding wells of the cell reaction plate using Multidrop Combi. It was covered with a lid and incubated at room temperature in the dark for 1 hour.
7) After incubation for 1 hour, it was placed in an EnVision microplate reader for measurement.

[6] = food intake and body weight of normal mice after a single subcutaneous injection; assay type: in vivo; settings: C57BL/6 mice, over 3 days; for Body weight changes: vs baseline
Procedure: 6-8 weeks old male C57BL/6 mice were fed in animal feeding rooms with strictly controlled environmental conditions, the temperature in the feeding room was maintained at 20° C.-24° C. and the humidity was maintained at 30%-70%. The light cycle in the animal feeding room was 12 hours (starting at 7:00 am and ending at 7:00 pm). During the experiment, animals were kept in single cages and toys were provided in each cage. During the experiment, animals were free to consume food (growth/reproduction feed for mice and rats) and water.
Body weight without fasting and initial food weight before administration were recorded, and the animals were administered with a single subcutaneous injection, and the daily body weight and food intake weight were recorded for 3 days after administration. The activity, water intake, diet, and body weight changes of animals were observed every day. The changes in body weight and food intake weight were calculated compared to the baseline levels of each group (the initial body weight and food intake weight before administration), with body weight changes expressed as percentages (baseline was 100%).

| Substance | EC50 [1] [nM] | AUCinf [2] [µg·h/mL] | Cmax [2] [ng/mL] | T1/2 [2] [h] | Tmax [2] [h] | EC50 [3] [nM] | AUCinf [4] [µg·h/mL] | Cmax [4] [ng/mL] | T1/2 [4] [h] | Tmax [4] [h] | EC50 [5] [nM] | Accumulated food intake weight ([6]; 3 nmol/kg single s.c.) [g] | Body weight changes ([6]; 3 nmol/kg single s.c.) | Accumulated food intake weight ([6]; 10 nmol/kg single s.c.) [g] | Body weight changes ([6]; 10 nmol/kg single s.c.) | Accumulated food intake weight ([6]; 30 nmol/kg single s.c.) [g] | Body weight changes ([6]; 30 nmol/kg single s.c.) |
| --- | --- | --- | --- | --- | --- | --- | --- | --- | --- | --- | --- | --- | --- | --- | --- | --- | --- |
| PKPEK(AEEAc-γGlu-CO(CH2)16COOH)PE-Aib-DASPEEWQRYY-Aib-ELRHYLNWLTRQRY-NH2 [Analogue 3] | 92.7 | 79.609 | 1941 | 24.7 | 13.3 | > 50 | 336.537 | 1775 | 125.5 | 12 | 0.037 | 9.73 ± 0.48 | −1.04% ± 2.02% | 8.24 ± 0.27 | −0.69% ± 1.64% | 6.24 ± 0.26 | −6.52% ± 1.37% |
| PKPEK(AEEAc-γGlu-CO(CH2)16COOH)PEED-Aib-SPEEWQRYY-Aib-SLRHYLNWLTRQRY-NH2 [Analogue 1] | – | – | – | – | – | > 50 | – | – | – | – | 0.041 | 11.54 ± 0.40 | 2.32% ± 2.53% | 9.29 ± 0.27 | 1.23% ± 2.92% | 8.10 ± 0.26 | 0.51% ± 2.56% |
